{"source": "patent US5849729A", "about": "“Use of hydrolyzed cocoa butter for percutaneous absorption” (Hershey Foods Corporation, priority 1995, dated 1998)", "key": {"[1]": {"details": "currently available / commercial formulations, trunk skin; cited from earlier work"}, "[2]": {"experiment": "In-vitro percutaneous absorption of retinoic acid and triamcinolone acetonide from two cocoa butter vehicles (Franz cells, 48 h)", "details": "for % Abs (% Absorbed) / % Absorbed / total absorption: percent of applied dose", "excerpt": "The objective of this study was to measure the permeation of retinoic acid and triamcinolone acetonide through human skin in-vitro from two cocoa butter vehicles.\nTwo cocoa butter vehicles supplied by Hershey Foods Corporation were utilized: (1) pure cocoa butter and (2) partially hydrolyzed cocoa butter emulsion. Radioactive [11,12-^3 H] [retinoic acid (NET 920, Lot 2930-067, specific activity 1 mCi/ml) and [6,7-^3 H]-triamcinolone acetonide (NET 470, Lot 2904-170, specific activity 1 mCi/ml) were obtained from Dupont-New England Nuclear Corporation, Boston, Mass.\nEach of the two cocoa butter vehicles was spiked separately with ^3 H-retinoic acid and ^3 H-Triamcinolone acetonide to give a total of four radioactive formulations for study. This was done by adding 25 μl (containing 25 μCi) of each tracer solution to approximately 1 gram of each vehicle and mixing with the tip of the dispensing micropipette. The pure cocoa butter vehicle was liquified by holding it under warm tap water prior to spiking. This was not done with the partially hydrolyzed cocoa butter emulsion. Neither formulation was used for three days after spiking to allow for diffusional mixing to take place. Final radioactive concentrations of each formulation were: […]\nHuman trunk skin without obvious signs of disease was used throughout. It was obtained within 24 hours of death, dermatomed to a thickness of approximately 0.25 mm, cryopreserved and sealed in water vapor-impermeableplastic bags. It was stored at -70° C. until the day of use then thawed by placing the bag in 37° C. water.\nSkin from a single donor was cut into multiple sections large enough to fit on 0.8 cm^2 Franz cells. The dermal chamber was filled with isotonic saline, pH 7.4, into which a small magnetic stirring bar was placed. The epidermal chamber was left open to the ambient laboratory environment, approximately 22° C. and 40-60% RH. The cells were placed in a diffusion apparatus in which the dermal receptor solution was stirred magnetically at 600 RPM and its temperature maintained at 37° C.\nTo assure the integrity of each skin section, its permeability to tritiated water was determined before application of the test formulations. Following a brief (0.5-1 hour) equilibration period, 150 μl ^3 H2 O (specific activity 0.3 μCi/ml) was layered across the top of the skin section so that the entire exposed surface was covered. After 5 minutes the aqueous layer was removed and the surface of the skin carefully blotted dry. At t=0.5 hour the saline receptor phase was removed and analyzed for radioactive content by liquid scintillation counting. Skin specimens in which absorption of ^3 H2 O was less than 1.25 μl were considered acceptable.\nSubsequently, each test formulation was applied at a target dose of 10 mg (cream) or 10 μl (butter). The cream formulation (partially hydrolyzed cocoa butter emulsion) was applied from the smooth, rounded-tip of a glass rod, the exact amount determined by weighing the rod before and after application. The butter formulation (pure cocoa butter) was first liquified under warm tap water, allowed to cool to room temperature, then applied with a 10 μl positive displacement micropipette prior to resolidifying. At 4, 8, 12, 24, 36 and 48 hours the receptor solution was removed in its entirety, replaced with fresh solution, and a 1 ml aliquot taken and assayed for radioactive content by liquid scintillation counting.\nA 1 ml aliquot of each receptor sample containing ^3 H2 O, ^3 H-retinoic acid, or ^3 H-triamcinolone acetonide was placed in a 7 ml glass scintillation vial and gelled by the addition of 5 ml Opti-Fluor (Packard Instrument Co., Meriden, Conn.). These were counted in a Packard Tri-Carb Model 1900CA Liquid scintillation Analyzer equipped with internal standard and automatic quench correction."}, "[3]": {"details": "butter (pure cocoa butter), 48 h, individual skin sections"}, "[4]": {"details": "butter, 48 h, average of three donors"}, "[5]": {"details": "butter, 48 h, average per skin donor (n=4), listed as RETINOIC ACID"}}, "note": "Several values for one entry are separate records, joined by “and”; a condition that tells them apart may be missing. Equal entries are not always repeated. Entries after “also recorded” stand apart in the source; their conditions may differ."}
{"smiles": "CC1=C(/C=C/C(C)=C/C=C/C(C)=C/C(=O)O)C(C)(C)CCC1", "note": "[retinoic acid]", "values": [{"measurement": "total absorption from currently available formulations", "setting": "[1]", "value": "1-5 % of the dose"}, {"measurement": "absorption period versus current formulations", "setting": "[2]; admixed with cocoa butter or partially hydrolyzed cocoa butter emulsion, in words", "value": "able to sustain a longer absorption period than has been demonstrated with current retinoic acid formulations"}, {"measurement": "steady state rate of absorption", "setting": "[2]; both cocoa butter formulations", "value": "approximately 15 ng/cm^2 /hr"}, {"measurement": "rate of absorption profile / flux", "setting": "[2]; both cocoa butter formulations, in words", "value": "higher than generally seen with other retinoic acid formulations; also recorded: relatively high flux rates"}, {"measurement": "Penet (Total Penetration)", "setting": "[2]; [3]", "value": "729.80 and 954.98 and 769.08 and 941.38 and 725.19 and 871.67 and 741.10 and 1267.53 and 552.40 and 552.46 and 685.17 and 944.68"}, {"measurement": "% Abs (% Absorbed)", "setting": "[2]; [3]", "value": "14.59% and 19.10% and 15.38% and 18.82% and 14.50% and 17.43% and 14.82% and 25.35% and 11.05% and 13.70% and 18.89%"}, {"measurement": "Rate of absorption, R1", "setting": "[2]; butter (pure cocoa butter), sample R1, mid-t 2 h, individual skin sections", "value": "36.55 ng/cm^2 /hr and 48.20 ng/cm^2 /hr and 39.43 ng/cm^2 /hr and 51.22 ng/cm^2 /hr and 55.25 ng/cm^2 /hr and 66.87 ng/cm^2 /hr and 50.92 ng/cm^2 /hr and 79.43 ng/cm^2 /hr and 40.64 ng/cm^2 /hr and 39.67 ng/cm^2 /hr and 51.71 ng/cm^2 /hr and 75.03 ng/cm^2 /hr"}, {"measurement": "Rate of absorption, R3", "setting": "[2]; butter (pure cocoa butter), sample R3, mid-t 10 h, individual skin sections", "value": "23.55 ng/cm^2 /hr and 28.39 ng/cm^2 /hr and 24.05 ng/cm^2 /hr and 29.61 ng/cm^2 /hr and 22.32 ng/cm^2 /hr and 21.53 ng/cm^2 /hr and 20.69 ng/cm^2 /hr and 34.12 ng/cm^2 /hr and 16.59 ng/cm^2 /hr and 15.24 ng/cm^2 /hr and 17.69 ng/cm^2 /hr and 25.75 ng/cm^2 /hr"}, {"measurement": "Rate of absorption, R4", "setting": "[2]; butter (pure cocoa butter), sample R4, mid-t 18 h, individual skin sections", "value": "14.13 ng/cm^2 /hr and 23.33 ng/cm^2 /hr and 15.22 ng/cm^2 /hr and 18.56 ng/cm^2 /hr and 18.11 ng/cm^2 /hr and 20.56 ng/cm^2 /hr and 20.18 ng/cm^2 /hr and 33.78 ng/cm^2 /hr and 15.63 ng/cm^2 /hr and 14.10 ng/cm^2 /hr and 16.64 ng/cm^2 /hr and 23.97 ng/cm^2 /hr"}, {"measurement": "Rate of absorption, R5", "setting": "[2]; butter (pure cocoa butter), sample R5, mid-t 30 h, individual skin sections", "value": "16.12 ng/cm^2 /hr and 19.00 ng/cm^2 /hr and 18.23 ng/cm^2 /hr and 16.25 ng/cm^2 /hr and 11.93 ng/cm^2 /hr and 15.30 ng/cm^2 /hr and 12.34 ng/cm^2 /hr and 23.05 ng/cm^2 /hr and 8.38 ng/cm^2 /hr and 9.60 ng/cm^2 /hr and 10.78 ng/cm^2 /hr and 16.34 ng/cm^2 /hr"}, {"measurement": "Rate of absorption, R6", "setting": "[2]; butter (pure cocoa butter), sample R6, mid-t 42 h, individual skin sections", "value": "15.54 ng/cm^2 /hr and 17.94 ng/cm^2 /hr and 14.86 ng/cm^2 /hr and 24.92 ng/cm^2 /hr and 11.83 ng/cm^2 /hr and 16.34 ng/cm^2 /hr and 13.15 ng/cm^2 /hr and 24.58 ng/cm^2 /hr and 8.20 ng/cm^2 /hr and 9.16 ng/cm^2 /hr and 10.53 ng/cm^2 /hr and 14.03 ng/cm^2 /hr"}, {"measurement": "Total Penetration", "setting": "[2]; [4]", "value": 811.29}, {"measurement": "Penet (Total Penetration)", "setting": "[2]; [5]", "value": "848.81 and 901.37 and 683.68"}, {"measurement": "Penet (Total Penetration)", "setting": "[2]; butter, 48 h, average per skin donor (n=4), listed as Retinoic Acid", "value": "683.68 and 901.37 and 848.81"}, {"measurement": "Rate of absorption, R1", "setting": "[2]; butter, R1, mid-t 2 h, average of three donors", "value": 52.91, "unit": "ng/cm^2 /hr"}, {"measurement": "Rate of absorption, R1", "setting": "[2]; butter, R1, mid-t 2 h, average per skin donor (n=4), listed as RETINOIC ACID", "value": "43.85 ng/cm^2 /hr and 63.12 ng/cm^2 /hr and 51.76 ng/cm^2 /hr"}, {"measurement": "Rate of absorption, R1", "setting": "[2]; butter, R1, mid-t 2 h, average per skin donor (n=4), listed as Retinoic Acid", "value": "51.76 ng/cm^2 /hr and 63.12 ng/cm^2 /hr and 43.85 ng/cm^2 /hr"}, {"measurement": "Rate of absorption, R3", "setting": "[2]; butter, R3, mid-t 10 h, average of three donors", "value": 23.30, "unit": "ng/cm^2 /hr"}, {"measurement": "Rate of absorption, R3", "setting": "[2]; butter, R3, mid-t 10 h, average per skin donor (n=4), listed as RETINOIC ACID", "value": "26.40 ng/cm^2 /hr and 24.67 ng/cm^2 /hr and 18.82 ng/cm^2 /hr"}, {"measurement": "Rate of absorption, R3", "setting": "[2]; butter, R3, mid-t 10 h, average per skin donor (n=4), listed as Retinoic Acid", "value": "18.82 ng/cm^2 /hr and 24.67 ng/cm^2 /hr and 26.40 ng/cm^2 /hr"}, {"measurement": "Rate of absorption, R4", "setting": "[2]; butter, R4, mid-t 18 h, average of three donors", "value": 19.52, "unit": "ng/cm^2 /hr"}, {"measurement": "Rate of absorption, R4", "setting": "[2]; butter, R4, mid-t 18 h, average per skin donor (n=4), listed as RETINOIC ACID", "value": "17.81 ng/cm^2 /hr and 23.16 ng/cm^2 /hr and 17.59 ng/cm^2 /hr"}, {"measurement": "Rate of absorption, R4", "setting": "[2]; butter, R4, mid-t 18 h, average per skin donor (n=4), listed as Retinoic Acid", "value": "17.59 ng/cm^2 /hr and 23.16 ng/cm^2 /hr and 17.81 ng/cm^2 /hr"}, {"measurement": "Rate of absorption, R5", "setting": "[2]; butter, R5, mid-t 30 h, average of three donors", "value": 14.78, "unit": "ng/cm^2 /hr"}, {"measurement": "Rate of absorption, R5", "setting": "[2]; butter, R5, mid-t 30 h, average per skin donor (n=4), listed as RETINOIC ACID", "value": "17.40 ng/cm^2 /hr and 15.66 ng/cm^2 /hr and 11.28 ng/cm^2 /hr"}, {"measurement": "Rate of absorption, R5", "setting": "[2]; butter, R5, mid-t 30 h, average per skin donor (n=4), listed as Retinoic Acid", "value": "11.28 ng/cm^2 /hr and 15.66 ng/cm^2 /hr and 17.40 ng/cm^2 /hr"}, {"measurement": "Rate of absorption, R6", "setting": "[2]; butter, R6, mid-t 42 h, average of three donors", "value": 15.09, "unit": "ng/cm^2 /hr"}, {"measurement": "Rate of absorption, R6", "setting": "[2]; butter, R6, mid-t 42 h, average per skin donor (n=4), listed as RETINOIC ACID", "value": "18.31 ng/cm^2 /hr and 16.48 ng/cm^2 /hr and 10.48 ng/cm^2 /hr"}, {"measurement": "Rate of absorption, R6", "setting": "[2]; butter, R6, mid-t 42 h, average per skin donor (n=4), listed as Retinoic Acid", "value": "10.48 ng/cm^2 /hr and 16.48 ng/cm^2 /hr and 18.31 ng/cm^2 /hr"}, {"measurement": "% Absorbed / total absorption", "setting": "[2]; [4]", "value": 16.2, "unit": "%"}, {"measurement": "% Absorbed / total absorption", "setting": "[2]; butter, 48 h, average of three donors, listed as Retinoic Acid", "value": 16.22, "unit": "%"}, {"measurement": "% Abs (% Absorbed)", "setting": "[2]; [5]", "value": "16.97% and 18.02% and 13.67%"}]}
